“And” between values parts separate entries of the source, which are not always exact repeats. Identical values can stand only once. Like-named read-outs stand apart in the source and are kept apart here.
Columns and labels:
[1] = in vivo
HIV-1 RT [2] = target: T1, HIV-1 RT (Human immunodeficiency virus type 1 group M subtype B, UniProt P04585); test: RESTRICT assay with TFV-DP spiked in diluted whole blood (0.25% final); assay type: biochemical; conditions: 0.25% blood, 100 nM dNTP, N = 4
T1 construct: Recombinant reverse transcriptase protein obtained through the NIH AIDS Reagent Program; purchased NIH AIDS Reagent Program, Division of AIDS, NIAID, NIH
Experimental: [sequence] assays were conducted with TFV-DP (166403-66-3, BOC Sciences Inc.) using 5 μL of DNA template, 5 μL of primer, 20 μL of dNTPs solution, 5 μL of TFV-DP, and 5 μL of HIV-1 RT. […] Serial dilutions of TFV-DP in buffer spanning a concentration range of 1-10,000 nM were prepared to span two orders of magnitude above and below the clinically relevant range for adherence measurement as described in pharmacokinetic studies. […] [sequence] assay optimization experiments were completed at 100, 300, 1560, and 6250 nM dNTP concentration.
Fluorescence from [sequence] assay data was normalized to allow comparison of data points gathered at different dNTP concentrations as follows,
HIV-negative, human whole blood (BioIVT, Westbury, N.Y.) was diluted in nuclease-free water (3098, Sigma) to lyse RBCs and reduce unwanted inhibition of RT activity by blood components such as immunoglobulins. Blood was mixed with the water by vortexing and incubating for 5 minutes to lyse RBCs.
Five μL of TFV-DP were spiked in 2% blood to 35 μL of master mix so that the final concentration of blood in the [sequence] assay was 0.25%. […]

[3] = cited from earlier work
HIV-1 RT [4] = target: T1, HIV-1 RT; test: RESTRICT assay with TFV-DP in buffer at different dNTP concentrations; assay type: biochemical; conditions: 100, 300, 1560, 6250 nM dNTP, fixed 50 to 1 dNTP to template
Experimental: Optimal assay conditions were determined for RT activity in order to minimize assay time and reagent concentration, using RT enzyme obtained through the NIH AIDS Reagent Program, Division of AIDS, NIAID, NIH (Le Grice, S. F. J.; et al., Purification and Characterization of Human Immunodeficiency Virus Type 1 Reverse Transcriptase. In Methods in Enzymology; DNA Replication; Academic Press, 1995, 262, 130-144). Reactions were carried out in a buffer containing: 60 mM Tris (77-86-1, Sigma), 30 mM KCl (7447-40-7, Sigma), 8 mM MgCl2 (7786-30-3, Sigma), and 10 mM dithiothreitol (20-265, Sigma) buffered to pH 8.0 using HCl (7647-01-0, Acros Organics).
The DNA template has a 20 nt primer binding site complementary to the M13 phage DNA primer AGAGTTTGATCCTGGCTCAG (Catalog, Integrated DNA Technologies, Coralville, Iowa), set forth herein as SEQ ID NO:1, followed by TTCA repeats with a total template length of 200 nt. The DNA template was designed using NUPACK software (Zadeh, J. N. et al., NUPACK: Analysis and Design of Nucleic Acid Systems. J. Comput. Chem. 2011, 32 (1), 170-173) to preferentially include T bases because TFV-DP is a deoxyadenosine triphosphate (dATP) analog and thus will bind to T's in the DNA template. […]
Fluorescence from RESTRICT assay data was normalized to allow comparison of data points gathered at different dNTP concentrations as follows, […]

HIV-1 RT [5] = target: T1, HIV-1 RT; test: RESTRICT assay on whole blood of study participants (clinical samples); assay type: biochemical
From the text: The RESTRICT assay detects TFV-DP drug concentrations based on its mechanism of action on HIV RT. See examples above and Olanrewaju AO, et al. An enzymatic assay for rapid measurement of antiretroviral drug levels. ACS Sens. April 2020. TFV-DP causes chain termination when HIV RT synthesizes viral double stranded DNA (dsDNA). The RESTRICT assay provides all the reagents required for dsDNA synthesis—a DNA template, primers, nucleotides, recombinant HIV RT enzyme, and appropriate buffers—and measures TFV-DP concentrations in a patient's blood using intercalating fluorescence dyes based on the extent of DNA synthesis. At low TFV-DP concentrations, full-length dsDNA is formed and binds to many intercalating dye molecules resulting in high fluorescence. Meanwhile, at high TFV-DP concentrations, DNA chain termination occurs resulting in dsDNA fragments that bind to few intercalating dye molecules resulting in low fluorescence. Thus, the fluorescence readout from the RESTRICT assay was used to estimate TFV-DP concentration in a patient's blood. […]
The RESTRICT assay was completed in 5 simple steps. […] Then 5 μL of 100 nM of HIV-1 RT was added to initiate the assay which was incubated at 37° C. for 30 min in a microplate reader (SpectraMax iD3, Molecular Devices). […]

CC(Cn1cnc2c(N)ncnc21)OCP(=O)(O)OP(=O)(O)OP(=O)(O)O (stereo in doubt) [TFV-DP, tenofovir diphosphate]
clinical range for TFV-DP adherence, concentration in whole blood [1]: 75 to 850 nM
Normalized fluorescence (%) (HIV-1 RT [2]; TFV-DP 85.4 nM (16.9 fmol/10^6 RBCs, low adherence, 1 dose per week)): 89.0%
Normalized fluorescence (%) (HIV-1 RT [2]; TFV-DP 768 nM (152.3 fmol/10^6 RBCs, high adherence, 7 doses per week)): 57.5%
Median TFV-DP concentrations in RBCs ([3]; depending on adherence, LC/MS): 15-170 fmol/10^6 RBCs
accumulation in red blood cells (RBCs) ([3]; in vivo): 25 fold
half-life ([3]; red blood cells): 408 h
IC50 of inhibition curve as dNTP concentration increases (HIV-1 RT [4]): shift right, towards higher IC50 values
Median fluorescence, RESTRICT assay (HIV-1 RT [5]; samples containing <700 fmol/punch TFV-DP (N=14)): 51.3%
Median fluorescence, RESTRICT assay (HIV-1 RT [5]; samples containing ≥700 fmol/punch TFV-DP (N=4)): 31.9%

C[C@H](Cn1cnc2c(N)ncnc21)OCP(=O)(O)O [TFV, tenofovir]
half-life ([3]; plasma): 15 h and 17 h
detectable for up to ([3]; urine): ≤ 7 days

Reference: patent publication US20220307066A1, “AN ENZYMATIC ASSAY TO MEASURE LONG-TERM ADHERENCE TO PRE EXPOSURE PROPHYLAXIS AND ANTIRETROVIRAL THERAPY” (University of Washington, priority 2019, published 2022)
